The values below come from ChEMBL document CHEMBL4819070, “Synthesis and biological evaluation of 2-(4-alkoxy-3-cyano)phenylpyrimidine derivatives with 4-amino or 4-hydroxy as a pharmacophore element binding with xanthine oxidase active site” (Bioorg Med Chem, 2021).

The pIC50 is −log10 of the IC50, conventionally taken in molar units. For orientation: inhibition means the share of the control response that was lost under treatment. One may read the pKi as the Ki on a negative log10 scale, so that one unit is a factor of ten.

Data set [1] deals with T1, Xanthine dehydrogenase/oxidase (Bos taurus, UniProt P80457). As to the kind of experiment: Inhibition of bovine milk xanthine oxidase assessed as reduction in uric acid formation using xanthine as substrate preincubated for 15 mins followed by substrate addition measured for every 30 sec by spectrophotometric analysis.
In data set [2] the target is T1, Xanthine dehydrogenase/oxidase. The data set is described as follows: Inhibition of bovine milk xanthine oxidase assessed as reduction in uric acid formation at 10 uM using xanthine as substrate preincubated for 15 mins followed by substrate addition measured for every 30 sec by spectrophotometric analysis relative to control. As to conditions: cattle, 0.5 min.
Data set [3] relates to Rattus norvegicus. The data set is described as follows: Hypouricemic activity in Sprague-Dawley rat model of Potassium oxonate-induced acute hyperuricemia assessed as decrease in serum uric acid AUC (1 to 8 hrs) at 30 to 90 mg/kg, IG administered after potassium oxonate treatment and measured at 1 hr. As to conditions: dose 30-90 mg/kg. Type of data set: functional, organism-based.

The target in data set [4] is T1, Xanthine dehydrogenase/oxidase. The data set is described as follows: Mixed type inhibition of bovine milk xanthine oxidase assessed as inhibitory constant using xanthine as substrate preincubated for 15 mins followed by substrate addition measured for every 30 sec by spectrophotometric analysis.
In data set [5] the test system is Rattus norvegicus. As to the kind of experiment: Hypouricemic activity in Sprague-Dawley rat model of Potassium oxonate-induced acute hyperuricemia assessed as decrease in serum uric acid at 10 mg/kg, IG administered after potassium oxonate treatment and measured upto 8 hrs. Type of data set: functional, organism-based. As to conditions: time hrs <=8.
Data set [6] concerns the target T1, Xanthine dehydrogenase/oxidase. As to the kind of experiment: Inhibition of bovine milk xanthine oxidase assessed as increase in Km at 0.01 to 0.06 uM by Lineweaver-Burk plot analysis. As to conditions: cattle, dose 0.01-0.06 µM.
For data set [7] the target is unchanged. As to the kind of experiment: Inhibition of bovine milk xanthine oxidase assessed as decrease in Vmax at 0.01 to 0.06 uM by Lineweaver-Burk plot analysis. As to conditions: cattle, dose 0.01-0.06 µM.
Data set [8] concerns Rattus norvegicus. As to the kind of experiment: Hypouricemic activity in Sprague-Dawley rat model of Potassium oxonate-induced acute hyperuricemia assessed as decrease in serum uric acid at 30 to 90 mg/kg, IG administered after potassium oxonate treatment and measured at 1 hr. The format is functional, organism-based. The following applies: dose 30-90 mg/kg.

Molecules are shown by their SMILES. pIC50, pKi: −log10 of the molar value. The source made the active and inactive calls. The calls are words filed in the database; no cut-off is given here.

T1 sequence (P80457 whole entry): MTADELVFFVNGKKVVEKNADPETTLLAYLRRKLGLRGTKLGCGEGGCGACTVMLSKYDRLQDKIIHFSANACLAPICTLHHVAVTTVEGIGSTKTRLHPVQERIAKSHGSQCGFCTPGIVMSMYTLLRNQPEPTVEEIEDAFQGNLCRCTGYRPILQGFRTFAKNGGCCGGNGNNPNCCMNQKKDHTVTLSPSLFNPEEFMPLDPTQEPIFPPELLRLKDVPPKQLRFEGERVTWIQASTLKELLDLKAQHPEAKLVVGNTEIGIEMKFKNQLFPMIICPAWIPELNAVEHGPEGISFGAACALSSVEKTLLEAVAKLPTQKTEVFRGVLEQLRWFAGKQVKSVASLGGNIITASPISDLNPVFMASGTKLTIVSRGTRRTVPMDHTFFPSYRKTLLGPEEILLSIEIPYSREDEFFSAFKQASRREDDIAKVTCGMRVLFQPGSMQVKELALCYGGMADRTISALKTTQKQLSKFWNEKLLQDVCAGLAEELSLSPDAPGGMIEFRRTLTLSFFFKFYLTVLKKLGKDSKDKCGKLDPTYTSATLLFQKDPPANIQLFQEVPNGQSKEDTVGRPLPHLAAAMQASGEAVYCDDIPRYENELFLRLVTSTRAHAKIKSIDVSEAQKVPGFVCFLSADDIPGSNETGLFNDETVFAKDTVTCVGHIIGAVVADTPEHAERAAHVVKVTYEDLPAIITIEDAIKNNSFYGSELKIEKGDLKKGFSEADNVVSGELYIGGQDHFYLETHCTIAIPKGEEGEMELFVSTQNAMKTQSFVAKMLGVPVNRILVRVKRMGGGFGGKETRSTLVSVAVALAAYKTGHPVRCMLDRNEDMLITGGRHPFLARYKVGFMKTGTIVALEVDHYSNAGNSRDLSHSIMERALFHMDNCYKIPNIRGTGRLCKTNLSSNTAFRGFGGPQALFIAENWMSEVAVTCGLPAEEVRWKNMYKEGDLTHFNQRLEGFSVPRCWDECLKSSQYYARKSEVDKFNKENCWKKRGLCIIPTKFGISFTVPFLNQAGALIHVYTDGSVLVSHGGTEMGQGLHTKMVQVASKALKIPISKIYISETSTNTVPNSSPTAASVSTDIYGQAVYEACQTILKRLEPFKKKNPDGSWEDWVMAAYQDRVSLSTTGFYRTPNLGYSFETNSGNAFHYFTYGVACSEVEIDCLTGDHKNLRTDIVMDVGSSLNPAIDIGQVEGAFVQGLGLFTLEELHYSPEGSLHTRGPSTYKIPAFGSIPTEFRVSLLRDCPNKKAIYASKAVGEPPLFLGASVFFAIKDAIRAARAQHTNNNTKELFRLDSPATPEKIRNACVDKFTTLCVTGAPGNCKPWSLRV

In the case of `N#Cc1cc(-c2nccc(N)n2)ccc1OCc1ccccc1`, in data set [1], the negative logarithm of the IC50 (pIC50) was 6.46.
`N#Cc1cc(-c2nccc(N)n2)ccc1OCC1CCCCC1`: in data set [1], the pIC50 was 6.27.
For `N#Cc1cc(-c2nc(N)cc(O)n2)ccc1OCc1ccccc1`, in data set [1], the pIC50 was 6.68.
Consider `N#Cc1cc(-c2nc(N)cc(O)n2)ccc1OCC1CCCCC1`, for which the pIC50 in data set [1] is 6.56.
Consider `N#Cc1cc(-c2nccc(O)n2)ccc1OCc1cccc(F)c1`, for which the pIC50 in data set [1] was 7.11.
For `CC(C)COc1ccc(-c2nccc(O)n2)cc1C#N`, the pIC50 in data set [1] was 7.16.
Take `CC(C)=COc1ccc(-c2nccc(O)n2)cc1C#N`: in data set [1], the pIC50 is 7.26.
The same measure, in the same setting: in the case of `N#Cc1cc(-c2nccc(O)n2)ccc1OCC1CCCCC1` it was 7.14; in that of `N#Cc1cc(-c2nccc(O)n2)ccc1OCc1ccccc1F`, 7.22; in that of `N#Cc1cc(-c2nccc(O)n2)ccc1OCc1ccccc1`, 7.18.
Consider `CC(C)COc1ccc(-c2nccc(N)n2)cc1C#N`, for which the pIC50 in data set [1] was 6.58.
`Cc1ccc(COc2ccc(-c3nccc(O)n3)cc2C#N)cc1`: the pIC50 in data set [1] is 7.10.
`COc1ccc(-c2nccc(O)n2)cc1C#N`: in data set [1], the pIC50 is 6.75.
For `CC(C)(C)c1ccc(COc2ccc(-c3nccc(O)n3)cc2C#N)cc1`, the pIC50 in data set [1] was 6.55.
For `COc1ccc(COc2ccc(-c3nccc(O)n3)cc2C#N)cc1`, the pIC50 in data set [1] is 6.71.
`N#Cc1cc(-c2nccc(O)n2)ccc1OCC1CC1`: the pIC50 in data set [1] is 7.03.
Consider `N#Cc1cc(-c2nccc(O)n2)ccc1OCc1ccc(F)cc1`, for which the pIC50 in data set [1] is 7.12.
On the same count and under the same terms, in the case of `N#Cc1cc(-c2nccc(O)n2)ccc1OCc1ccc(Cl)cc1` it was 6.83; in that of `CC(C)COc1ccc(-c2ncccn2)cc1C#N`, 5.79.
In the case of `N#Cc1cc(-c2nccc(O)n2)ccc1OCc1ccc(Br)cc1`, the pIC50 in data set [1] was 7.02.
As to `N#Cc1cc(-c2ncccn2)ccc1OCC1CCCCC1`, the pIC50 in data set [1] was 5.35.
As to `CC(C)COc1ccc(-c2nc(N)cc(O)n2)cc1C#N`, in data set [1], the negative-log IC50 (pIC50) is 6.89.
The same measure, in the same setting: then `CC(C)Oc1ccc(-c2nccc(O)n2)cc1C#N`, with 7.13.
As for `N#Cc1cc(-c2nccc(O)n2)ccc1O`, the inhibition at 10 µM in data set [2] was less than 50%.
With `N#Cc1cc(-c2ncccn2)ccc1OCc1ccccc1`, the pIC50 in data set [1] was 5.71.
`CC(C)CCOc1ccc(-c2nccc(O)n2)cc1C#N`: the outcome with Rattus norvegicus [3] and in the data set with Rattus norvegicus [8] was Active. Further, the pKi in data set [4] was 7.74. In addition, the outcome in the data set on Rattus norvegicus [5] was inactive. Moreover, the “inhibition (INH)” value in data set [6] and in data set [7] was “Active” each time. In addition, the pIC50 in data set [1] was 7.34.
